Among the test systems are HL-60(TB) leukemia; HCC-2998 colon; LOX IMVI melanoma; HOP-62 NSCLC; T-47D breast; 786-0 renal; NCI-H460 lung; DU-145 prostate; OVCAR-8 ovarian; MDA-N; MDA-MB-231 breast.
Holding throughout (test): NCI anticancer screen, dose series, 48 h

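Five concentrations, 48 hours, 96-well plates. GI50 is the concentration that inhibits growth by half. Definition used: TGI = concentration required for complete inhibition of growth.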

Consider `O=c1[nH]c2nccn2c2c1SCCN2`, for which the TGI in the assay on HL-60(TB) leukemia, in the assay with HCC-2998 colon, in the assay with LOX IMVI melanoma, in the assay on HOP-62 NSCLC, in the assay on T-47D breast and with 786-0 renal was greater than 100 µM throughout. Moreover, the TGI with NCI-H460 lung, with DU-145 prostate, with OVCAR-8 ovarian and in the assay on MDA-N was greater than 100 µM each time.

Take `Nc1ccc2ccc(N3CCNCC3)nc2n1`: the TGI in the assay with HL-60(TB) leukemia, in the assay on HCC-2998 colon, with LOX IMVI melanoma, with MDA-MB-231 breast, in the assay with HOP-62 NSCLC and with 786-0 renal was greater than 100 µM throughout. The TGI with NCI-H460 lung, with DU-145 prostate, in the assay on OVCAR-8 ovarian and in the assay with MDA-N was greater than 100 µM in each case.

On to `O=C(c1cccs1)N1CCCN(C(=O)c2cccs2)C1=S`, for which the TGI in the assay on HL-60(TB) leukemia was greater than 100 µM; with LOX IMVI melanoma it was greater than 100 µM; in the assay on MDA-MB-231 breast, greater than 100 µM; in the assay on HOP-62 NSCLC it was 66.2 µM; in the assay with T-47D breast, greater than 100 µM; in the assay with 786-0 renal it was greater than 100 µM. The TGI with DU-145 prostate and in the assay with OVCAR-8 ovarian was greater than 100 µM each time.

As to `COC(=O)c1ccccc1/C=C1\Cc2ccc3c(c2C1=O)CCCC3`, the TGI in the assay with HCC-2998 colon, in the assay with LOX IMVI melanoma, with MDA-MB-231 breast, in the assay with HOP-62 NSCLC, with T-47D breast and in the assay with 786-0 renal was greater than 100 µM each time. Further, the TGI in the assay on NCI-H460 lung, in the assay with DU-145 prostate, in the assay on OVCAR-8 ovarian and with MDA-N was greater than 100 µM throughout.

Turning to `COc1ccc(-c2ncn(C[Si](C)(C)C)c2-c2ccc(OC)cc2)cc1`, the TGI was 4.57 µM in the assay with HL-60(TB) leukemia; 7.34 µM in the assay with HCC-2998 colon; 21 µM with LOX IMVI melanoma; 27.6 µM in the assay with MDA-MB-231 breast; 30.7 µM in the assay with HOP-62 NSCLC; 18.7 µM in the assay on 786-0 renal. Besides, the TGI with NCI-H460 lung came to 15.3 µM; in the assay on OVCAR-8 ovarian, 31.4 µM; in the assay on MDA-N it was 10.9 µM.

In the case of `Cc1cc(Nc2ccc(NS(C)(=O)=O)cc2)c2c(ccc3nccc32)[nH]1`, the TGI with LOX IMVI melanoma worked out at 48.4 µM; in the assay on MDA-MB-231 breast, 33.4 µM; in the assay with HOP-62 NSCLC, 44.5 µM; in the assay on T-47D breast, 19.5 µM; in the assay on 786-0 renal, 45.2 µM; in the assay on NCI-H460 lung it was 46.5 µM. Further, the TGI was 40.1 µM with DU-145 prostate, greater than 100 µM in the assay with OVCAR-8 ovarian and 31.5 µM in the assay with MDA-N.

Consider `COC(=O)c1cn(CC(O)CCl)nn1` (stereo unspecified), for which the TGI with HCC-2998 colon, in the assay on LOX IMVI melanoma, with MDA-MB-231 breast, in the assay on HOP-62 NSCLC, in the assay on T-47D breast and in the assay on NCI-H460 lung was greater than 100 µM each time. In addition, the TGI with DU-145 prostate, with OVCAR-8 ovarian and in the assay on MDA-N was greater than 100 µM in each case.

As for `Cc1nc2ccc(F)cc2c(Cl)c1CCCl`, the TGI with HL-60(TB) leukemia is 35 µM; in the assay with HCC-2998 colon it was 84.9 µM; with LOX IMVI melanoma it was 82.8 µM; with MDA-MB-231 breast it was 73.8 µM; in the assay with HOP-62 NSCLC, greater than 100 µM; in the assay on T-47D breast it was greater than 100 µM. In addition, the TGI in the assay with 786-0 renal, with NCI-H460 lung, with DU-145 prostate and with OVCAR-8 ovarian was greater than 100 µM throughout.

Consider `COC(=O)C(Cc1ccc(N(C)C)cc1)(NC(=O)c1ccccc1)P(=O)(OC)OC` (stereo unspecified), for which the TGI in the assay with HL-60(TB) leukemia, in the assay on HCC-2998 colon, in the assay on LOX IMVI melanoma, in the assay with HOP-62 NSCLC, with NCI-H460 lung and with OVCAR-8 ovarian was greater than 100 µM each time.

Turning to `CCCCCCCCCCCCCC[n+]1ccc(C(N)=O)cc1`, the GI50 in the assay with MDA-MB-231 breast is 1.85 µM; with HOP-62 NSCLC, 1.51 µM; in the assay with T-47D breast, 3.13 µM; with NCI-H460 lung, 2.58 µM; in the assay on DU-145 prostate, 2.66 µM; in the assay with OVCAR-8 ovarian it was 1.68 µM. In addition, the TGI with MDA-MB-231 breast is 4.6 µM; in the assay on HOP-62 NSCLC, 3.45 µM; in the assay on T-47D breast, 14 µM; in the assay on NCI-H460 lung, 8.18 µM; in the assay with DU-145 prostate, 10.7 µM; in the assay with OVCAR-8 ovarian it was 4.48 µM.

Regarding `Cc1cc2c(cc1C)C(=O)C1(C2)Cc2cc3c(cc2C1=O)CCC3` (stereo unspecified), the TGI in the assay on HL-60(TB) leukemia, in the assay with HCC-2998 colon, with T-47D breast, with 786-0 renal, with NCI-H460 lung and in the assay with DU-145 prostate was greater than 100 µM each time. The TGI with OVCAR-8 ovarian and with MDA-N was greater than 100 µM each time.

For the compound `COC1=CC(=O)C=C(OC)C1=O`, the TGI in the assay on HL-60(TB) leukemia came out at 12.4 µM; in the assay on HCC-2998 colon it was 56.2 µM; with LOX IMVI melanoma, 13.1 µM; in the assay with HOP-62 NSCLC, 54.3 µM; in the assay on NCI-H460 lung it was 57.1 µM; with OVCAR-8 ovarian, 32.1 µM.

For `COC(=O)CNC(=O)CCC(C)[C@H]1CCC2C3C(C[C@H](OC(C)=O)[C@@]21C)[C@@]1(C)CCC2(C[C@H]1C[C@H]3OC(C)=O)OOC1(CC[C@]3(C)C4C[C@H](OC(C)=O)[C@@]5(C)C(CC[C@@H]5C(C)CCC(=O)NCC(=O)OC)C4[C@H](OC(C)=O)C[C@@H]3C1)OO2` (stereo partly specified), the TGI in the assay on HL-60(TB) leukemia came out at 2.37 µM; in the assay with HCC-2998 colon, 1.86 µM; in the assay on MDA-MB-231 breast it was 5.96 µM; with HOP-62 NSCLC, 1.52 µM; with T-47D breast, 22.4 µM; with 786-0 renal it was 1.42 µM. Besides, the TGI in the assay on NCI-H460 lung was 26.4 µM; in the assay on MDA-N, greater than 50 µM.

For `O=C(Nc1ccccc1Cl)c1ccc([N+](=O)[O-])cc1`, the TGI with HCC-2998 colon, with LOX IMVI melanoma, in the assay with HOP-62 NSCLC, with 786-0 renal, in the assay on NCI-H460 lung and in the assay on OVCAR-8 ovarian was greater than 100 µM each time.

The record behind these values is PubChem BioAssay (NCI).
